Experimental findings from ChEMBL document CHEMBL1147835, “A practical synthesis of the major 3-hydroxy-2-pyrrolidinone metabolite of a potent CDK2/cyclin A inhibitor” (Bioorg Med Chem Lett, 2006) are described below.

Test [1] deals with Cyclin-dependent kinase 2/cyclin A (Homo sapiens, UniProt P24941). Kind of test: Inhibition of CDK2/cyclin A. The class given is protein-complex assay.
In another test the test system is A2780. Kind of test: Antiproliferative activity against human A2780 cells. The class given is functional, cell-based.

The IC50 is the concentration needed to halve the response being measured. As for `C[C@H](C(=O)Nc1cc(C2CC2)n[nH]1)c1ccc(N2CC[C@@H](O)C2=O)cc1`, the half-maximal inhibitory concentration (IC50) was 27 nM in test [1] and 1600 nM with A2780.

As for `C[C@H](C(=O)Nc1cc(C2CC2)n[nH]1)c1ccc(N2CC[C@H](O)C2=O)cc1`, the IC50 in test [1] was 27 nM; in the test with A2780, 2200 nM.
